In one assay the test system is Enterococcus faecium X66. As to the kind of experiment: MIC, standard agar-dilution assay. In kind it is cell-based. The method, then: (§1) The formula I compounds have in vitro and in vivo activity against Gram-positive pathogenic bacteria. The MIC's were determined using a standard agar-dilution assays.
^b Formerly Streptococcus faecium X66

Assay [1] relates to Staphylococcus aureus NRRL X1.1. Nature of the assay: MIC, standard agar-dilution assay. In kind it is cell-based. On the procedure:
as §1

The subject of assay [2] is Klebsiella pneumoniae X68. As to the kind of experiment: MIC, standard agar-dilution assay. It counts as cell-based. The method, then: as §1
Assay [3] concerns Staphylococcus epidermidis EPI270. Nature of the assay: MIC, standard agar-dilution assay. In kind it is cell-based. On the procedure:
as §1

Assay [4] concerns Klebsiella pneumoniae KAE. Nature of the assay: MIC, standard agar-dilution assay. In kind it is cell-based. On the procedure:
as §1

The subject of assay [5] is Haemophilus influenzae C.L. As to the kind of experiment: MIC, standard agar-dilution assay. It counts as cell-based. The method, then:
as §1

The subject of assay [6] is Haemophilus influenzae 76. As to the kind of experiment: MIC, standard agar-dilution assay. In kind it is cell-based. On the procedure:
as §1

In assay [7] the test system is Klebsiella pneumoniae X26. Nature of the assay: MIC, standard agar-dilution assay. It counts as cell-based. On the procedure:
as §1

In a further assay the test system is Escherichia coli TEM. As to the kind of experiment: MIC, standard agar-dilution assay. In kind it is cell-based. On the procedure:
as §1

A further assay has as its system Escherichia coli EC14. As to the kind of experiment: MIC, standard agar-dilution assay. In kind it is cell-based. The method, then: as §1
Assay [8] relates to Streptococcus pyogenes C203. As to the kind of experiment: MIC, standard agar-dilution assay. It counts as cell-based. On the procedure: as §1
The next assay deals with Escherichia coli N10. Nature of the assay: MIC, standard agar-dilution assay. It counts as cell-based. On the procedure:
as §1

For assay [9], the system named is Staphylococcus epidermidis 222. Nature of the assay: MIC, standard agar-dilution assay. It counts as cell-based. The method, then:
as §1

Assay [10] deals with Staphylococcus aureus X400. As to the kind of experiment: MIC, standard agar-dilution assay. In kind it is cell-based. On the procedure: as §1
Assay [11] has as its system Staphylococcus aureus V41. Nature of the assay: MIC, standard agar-dilution assay. It counts as cell-based. On the procedure:
as §1

The test system of assay [12] is Enterococcus faecalis 2041. As to the kind of experiment: MIC, standard agar-dilution assay. In kind it is cell-based. The method, then: as §1
^c Formerly Streptococcus faecalis 2041

Assay [13] deals with Streptococcus pneumoniae Park 1. It counts as cell-based. On the procedure:
as §1

For assay [14], the system named is Staphylococcus aureus S13E. In kind it is cell-based. The method, then: as §1
A further assay deals with Streptococcus pyogenes. As to the kind of experiment: In vivo activity, experimentally infected mice (ED50). The conditions noted are these: Streptococcus pyogenes infection; doses administered subcutaneously to mice 1 and 4 hours postinfection.

Converted amounts (≈) assume the structure as drawn.

In the case of `CCCCCN(C)[C@H](CC(C)C)C(=O)N[C@H]1C(=O)N[C@@H](CC(N)=O)C(=O)N[C@H]2C(=O)N[C@H]3C(=O)N[C@H](C(=O)N[C@H](C(=O)O)c4cc(O)cc(O)c4-c4cc3ccc4O)[C@H](O[C@H]3C[C@](C)(N)[C@@H](O)[C@H](C)O3)c3ccc(c(Cl)c3)Oc3cc2cc(c3O[C@@H]2O[C@H](CO)[C@@H](O)[C@H](O)[C@H]2O[C@H]2C[C@](C)(N)[C@@H](O)[C@H](C)O2)Oc2ccc(cc2Cl)[C@H]1O` [Compound 35], the MIC entry with Enterococcus faecium X66 was “.5 µg/mL”; in assay [1], “.5 µg/mL”; in assay [2], over 128 µg/mL; in assay [3], 1 µg/mL (≈ 0.601 µM); in assay [4], over 128 µg/mL; in [5], over 128 µg/mL. Also, the MIC in assay [6] was over 128 µg/mL; in assay [7], over 128 µg/mL; against Escherichia coli TEM it was over 128 µg/mL; against Escherichia coli EC14 it was over 128 µg/mL; in assay [8], “.25 µg/mL”; against Escherichia coli N10 it was over 128 µg/mL. The MIC result in [9] was “.5 µg/mL”; in [10] it was “.5 µg/mL”; in [11], “.25 µg/mL”; in assay [12], “.5 µg/mL”; in [13] it was “.25 µg/mL”; in assay [14] it was “.25 µg/mL”.
Turning to `CCCCCCCCc1ccc(CNC2(C)CC(OC3C(Oc4c5cc6cc4Oc4ccc(cc4Cl)C(OC4CC(C)(N)C(O)C(C)O4)C4NC(=O)C(NC(=O)C6NC(=O)C(CC(N)=O)NC(=O)C(NC(=O)C(CC(C)C)NC)C(O)c6ccc(c(Cl)c6)O5)c5ccc(O)c(c5)-c5c(O)cc(O)cc5C(C(=O)O)NC4=O)OC(CO)C(O)C3O)OC(C)C2O)cc1` (stereo not drawn) [Compound 54], the MIC against Enterococcus faecium X66 is 64 µg/mL (≈ 35.7 µM); in assay [1] it was 32 µg/mL (≈ 17.8 µM); in assay [2], over 128 µg/mL; in assay [3] it was 64 µg/mL (≈ 35.7 µM); in [4] it was over 128 µg/mL; in [5], over 128 µg/mL. Further, the MIC in [6] is over 128 µg/mL; in [7], over 128 µg/mL; in the assay with Escherichia coli TEM, over 128 µg/mL; in the assay with Escherichia coli EC14 it was over 128 µg/mL; in [8] it was 8 µg/mL (≈ 4.46 µM); with Escherichia coli N10 it was over 128 µg/mL. The MIC stood at 64 µg/mL (≈ 35.7 µM) in [9]; 64 µg/mL (≈ 35.7 µM) in assay [10]; 64 µg/mL (≈ 35.7 µM) in [11]; 64 µg/mL (≈ 35.7 µM) in assay [12]; 4 µg/mL (≈ 2.23 µM) in assay [13]; 64 µg/mL (≈ 35.7 µM) in [14]. Besides, the ED50 in the assay on Streptococcus pyogenes was 0.91 mg/kg/2.
In the case of `CCCCCCCCOc1ccc(CNC2(C)CC(OC3C(Oc4c5cc6cc4Oc4ccc(cc4Cl)C(OC4CC(C)(N)C(O)C(C)O4)C4NC(=O)C(NC(=O)C6NC(=O)C(CC(N)=O)NC(=O)C(NC(=O)C(CC(C)C)NC)C(O)c6ccc(c(Cl)c6)O5)c5ccc(O)c(c5)-c5c(O)cc(O)cc5C(C(=O)O)NC4=O)OC(CO)C(O)C3O)OC(C)C2O)cc1` (stereo not drawn) [Compound 55], the MIC is 8 µg/mL (≈ 4.42 µM) against Enterococcus faecium X66; 8 µg/mL (≈ 4.42 µM) in assay [1]; over 128 µg/mL in assay [2]; 16 µg/mL (≈ 8.84 µM) in [3]; over 128 µg/mL in assay [4]; over 128 µg/mL in [5]. In addition, the MIC in assay [6] is over 128 µg/mL; in assay [7], over 128 µg/mL; in the assay with Escherichia coli TEM it was over 128 µg/mL; with Escherichia coli EC14 it was over 128 µg/mL; in assay [8] it was 4 µg/mL (≈ 2.21 µM); with Escherichia coli N10 it was over 128 µg/mL. For the same compound, the MIC came to 8 µg/mL (≈ 4.42 µM) in assay [9]; 16 µg/mL (≈ 8.84 µM) in assay [10]; 4 µg/mL (≈ 2.21 µM) in assay [11]; 8 µg/mL (≈ 4.42 µM) in assay [12]; 2 µg/mL (≈ 1.1 µM) in assay [13]; 8 µg/mL (≈ 4.42 µM) in [14]. For the same compound, the ED50 with Streptococcus pyogenes stood at 0.73 mg/kg/2.
In the case of `CCCCCCC(=O)NC1(C)CC(OC2c3ccc(c(Cl)c3)Oc3cc4cc(c3OC3OC(CO)C(O)C(O)C3OC3CC(C)(N)C(O)C(C)O3)Oc3ccc(cc3Cl)C(O)C(NC(=O)C(CC(C)C)NC)C(=O)NC(CC(N)=O)C(=O)NC4C(=O)NC3C(=O)NC2C(=O)NC(C(=O)O)c2cc(O)cc(O)c2-c2cc3ccc2O)OC(C)C1O` (stereo not drawn) [Compound 69], the MIC in the assay on Enterococcus faecium X66 is 2 µg/mL (≈ 1.17 µM); in assay [1], 1 µg/mL (≈ 0.587 µM); in [2], over 128 µg/mL; in [3], 8 µg/mL (≈ 4.69 µM); in assay [4], over 128 µg/mL; in assay [5], over 128 µg/mL. For the same compound, the MIC in assay [6] was over 128 µg/mL; in assay [7], over 128 µg/mL; against Escherichia coli TEM, over 128 µg/mL; with Escherichia coli EC14, over 128 µg/mL; in assay [8], 1 µg/mL (≈ 0.587 µM); with Escherichia coli N10, over 128 µg/mL. Moreover, the MIC in assay [9] is 2 µg/mL (≈ 1.17 µM); in [10], 4 µg/mL (≈ 2.35 µM); in assay [11], 2 µg/mL (≈ 1.17 µM); in assay [12], 1 µg/mL (≈ 0.587 µM); in [13], “.5 µg/mL”; in assay [14], 2 µg/mL (≈ 1.17 µM). In the assay on Streptococcus pyogenes, the ED50 was under 0.62 mg/kg/2.
As to `CCCCCNC1(C)CC(OC2c3ccc(cc3)Oc3cc4cc(c3OC3OC(CO)C(O)C(O)C3O)Oc3ccc(cc3Cl)C(O)C(NC(=O)C(CC(C)C)NC)C(=O)NC(CC(N)=O)C(=O)NC4C(=O)NC3C(=O)NC2C(=O)NC(C(=O)O)c2cc(O)cc(O)c2-c2cc3ccc2O)OC(C)C1O` (stereo not drawn) [Compound 71], the MIC is 8 µg/mL (≈ 5.39 µM) against Enterococcus faecium X66; 2 µg/mL (≈ 1.35 µM) in [1]; over 128 µg/mL in assay [2]; 1 µg/mL (≈ 0.673 µM) in [3]; over 128 µg/mL in [4]; over 128 µg/mL in assay [5]. Moreover, the MIC in assay [6] was over 128 µg/mL; in assay [7], over 128 µg/mL; against Escherichia coli TEM, over 128 µg/mL; in the assay with Escherichia coli EC14, over 128 µg/mL; in assay [8], 2 µg/mL (≈ 1.35 µM); against Escherichia coli N10, over 128 µg/mL. Moreover, the MIC in assay [9] worked out at 4 µg/mL (≈ 2.69 µM); in assay [10], 4 µg/mL (≈ 2.69 µM); in assay [11], 2 µg/mL (≈ 1.35 µM); in assay [12], 8 µg/mL (≈ 5.39 µM); in [13] it was 2 µg/mL (≈ 1.35 µM); in assay [14], 2 µg/mL (≈ 1.35 µM).
On to `CCCCCNC1(C)CC(OC2c3ccc(cc3)Oc3cc4cc(c3O)Oc3ccc(cc3Cl)C(O)C(NC(=O)C(CC(C)C)NC)C(=O)NC(CC(N)=O)C(=O)NC4C(=O)NC3C(=O)NC2C(=O)NC(C(=O)O)c2cc(O)cc(O)c2-c2cc3ccc2O)OC(C)C1O` (stereo not drawn) [Compound 74], for which the MIC is 8 µg/mL (≈ 6.05 µM) against Enterococcus faecium X66; 4 µg/mL (≈ 3.02 µM) in [1]; over 128 µg/mL in [2]; 2 µg/mL (≈ 1.51 µM) in assay [3]; over 128 µg/mL in assay [4]; over 128 µg/mL in assay [5]. Also, the MIC in assay [6] was over 128 µg/mL; in assay [7], over 128 µg/mL; in the assay with Escherichia coli TEM, over 128 µg/mL; with Escherichia coli EC14, over 128 µg/mL; in assay [8], 4 µg/mL (≈ 3.02 µM); in the assay on Escherichia coli N10, over 128 µg/mL. In addition, the MIC in assay [9] was found to be 4 µg/mL (≈ 3.02 µM); in assay [10], 4 µg/mL (≈ 3.02 µM); in assay [11], 4 µg/mL (≈ 3.02 µM); in [12] it was 8 µg/mL (≈ 6.05 µM); in assay [13], 4 µg/mL (≈ 3.02 µM); in [14], 4 µg/mL (≈ 3.02 µM).
As for `CCCCCNC1(C)CC(OC2c3ccc(c(Cl)c3)Oc3cc4cc(c3OC3OC(CO)C(O)C(O)C3O)Oc3ccc(cc3Cl)C(O)C(NC(=O)C(CC(C)C)NC)C(=O)NC(CC(N)=O)C(=O)NC4C(=O)NC3C(=O)NC2C(=O)NC(C(=O)O)c2cc(O)cc(O)c2-c2cc3ccc2O)OC(C)C1O` (stereo not drawn) [Compound 77], the MIC was 2 µg/mL (≈ 1.32 µM) in the assay with Enterococcus faecium X66; “.5 µg/mL” in assay [1]; over 128 µg/mL in assay [2]; 8 µg/mL (≈ 5.27 µM) in assay [3]; over 128 µg/mL in assay [4]; 128 µg/mL (≈ 84.2 µM) in [5]. Moreover, the MIC in [6] is 128 µg/mL (≈ 84.2 µM); in assay [7], over 128 µg/mL; in the assay with Escherichia coli TEM, over 128 µg/mL; against Escherichia coli EC14, over 128 µg/mL; in assay [8], “.25 µg/mL”; in the assay on Escherichia coli N10, over 128 µg/mL. In addition, the MIC was 1 µg/mL (≈ 0.658 µM) in assay [9]; 1 µg/mL (≈ 0.658 µM) in [10]; “.5 µg/mL” in assay [11]; 2 µg/mL (≈ 1.32 µM) in assay [12]; “.5 µg/mL” in assay [13]; “.5 µg/mL” in assay [14].

The values above are taken from patent US5591714A, “Derivatives of A82846” (priority 1994, dated 1997).
